# Measurements: US8153424B2, “Method of in vitro differentiation of neural stem cells, motor neurons and dopamine neurons from primate embryonic stem cells” (Wisconsin Alumni Research Foundation, priority 2001, dated 2012)
# “Also recorded” adds a separate entry of the source.
# Assays:
# Type in all cases: cell-based, human
# [1] = tested on: hESC-derived neural precursors; assay: BrdU incorporation by dissociated ES cell-derived neural precursors; conditions: FGF2 20 ng/ml, EGF 20 ng/ml, LIF 5 ng/ml; each alone
# Experimental: Histochemical and immunohistochemical staining. To better visualize the rosette formations, cultures with rosettes were rinsed with PBS and fixed in 4% paraformaldehyde and 0.25% glutaraldehyde for 1 hour. The fixed cells were then processed for embedding in plastic resin as described (Zhang et al., supra, 1999). The cultured cells were then sectioned in 1-μm thickness and stained with toluidine blue. For immunostaining, the coverslip cultures were immunostained with the following primary antibodies detected by appropriate fluorescent secondary antibodies detailed elsewhere (Zhang et al., supra, 2000; Zhang et al., supra, 1999): anti-nestin (polyclonal, gift of Dr. R. McKay of NINDS, 1:1,000); anti-polysialylated neuronal cell adhesion molecule (PSA-NCAM, mouse IgM, gift of Dr. G. Rougon of University of Marseille, France, 1:200); anti-Musashi-1 (rat IgG, gift of Dr. H. Okano, University of Tokyo, Japan, 1:500); anti-GFAP (polyclonal, Dako, 1:1,000); anti-human GFAP (Sternberg monoclonals, 1:10,000); O4 (mouse IgM, hybridoma supernatant, 1:50); anti-tyrosine hydroxylase (TH, Pel Freez, 1:500). The remaining antibodies were from Sigma: anti-βIII-tubulin (mouse IgG, 1:500); anti-neurofilament (NF) 68 (mouse IgG, 1:1,000); anti-NF 200 (polyclonal, 1:5,000); anti-MAP2ab (mouse IgG, 1:250); anti-γ-aminobutyric acid (GABA, polyclonal, 1:10,000); anti-glutamate (mouse IgG, 1:10,000). For bromodeoxyuridine (BrdU) incorporation, 4 coverslip cultures in each group were incubated with 2 μM of BrdU for sixteen hours before the cultures were fixed in 4% paraformaldehyde, denatured with 1N HCl and processed for immunolabeling and cell counting (Zhang et al., supra, 2000; Zhang et al., supra, 1999).
# [2] = tested on: hESC-derived neuroepithelial cells; assay: Ventral spinal progenitor and motor neuron differentiation in suspension culture, immunocytochemistry, cell counting and FACS
# Experimental: For motor neuron induction, hESC-derived neuroepithelial cells at day 10 were first treated with RA (0.1 μM) for caudalization in a neural medium, which consisted of DMEM/F12 (Gibco), N2 supplement, heparin (Sigma, 2 μg/ml) and cAMP (Sigma, 1 μM). One week later (day 17), the posteriorized neuroectodermal cells were isolated, and suspended in the same neural medium in the presence of RA (0.1 μM) and SHH (100-200 ng/ml; R&D, 1845-SH) for one week. After that (day 24), brain-derived neurotrophic factor (BDNF), glial-derived neurotrophic factor (GDNF) and insulin-like growth factor-1 (IGF1) (10 ng/ml, PeproTech Inc.) were added to the culture. Purmorphamine (Calbiochem) at different concentrations (0.5, 1, 2 and 5 μM) was used instead of SHH in some experiments (see Results).
# Immunohistochemical staining was performed according to Zhang et al., (Zhang et al. (2001), supra). Primary antibodies used in this study included polyclonal antibodies against Olig2 (1:500, Santa Cruz), Ki67 (1:200, Zymed), Otx2 (1:2000, Chemicon) and ChAT (1:200, Chemicon). Antibodies against MNR2 or HB9 (81.5C10) (1:50), Pax7 (1:2000), Nkx2.2 (1:50) and Hoxb4 (1:50) were purchased from Developmental Studies Hybridoma Bank (DSHB, Iowa City, Iowa). Polyclonal Phox2b and Irx3 antibodies were kindly provided by Dr. Jean-François Brunet (CNRS; École Normale Supérieure, Paris) and Dr. Thomas Jessell (Columbia University; New York, N.Y.), respectively. Images were collected using a Spot digital camera mounted onto a Nikon fluorescent microscope 600 (Fryer Inc.; Huntley, Ill.) or a confocal microscope (Nikon; Tokyo, Japan).
# The population of Olig2 or HB9-expressing cells among total differentiated cells (Hoechst labeled) was counted in two ways, as previously described (Li et al. (2005), supra). Six to twelve clusters in each group were counted and data were expressed as Mean ± SEM. Differences between groups were compared by ANOVA test, and the statistical significance was defined as two-sided (p=0.05).
# Cells were harvested using Accutase® (Innovative Cell), gently dissociated to single cells and washed with a FACS buffer (PBS, 0.1% NaN3, 2% donkey serum). After being fixed and permeabilized with ice cold 0.1% paraformaldehyde for 10 minutes and with 90% methanol for 30 minutes, cells Were then incubated in primary antibody (Olig2, goat IgG, 1:500) or a goat IgG control at […]. Cells were then washed and incubated with a corresponding secondary antibody, such as Alexa 488 conjugated, donkey, anti-goat IgG, for 2 hours followed by washing steps. Cells were analyzed by a Becton Dickinson FACSCaliber and analyzed with CellQuest Pro (BD Biosciences).
# SHH pathway = assay: RT-PCR of transcription factors in caudalized NE after 1 week of treatment
# Experimental: Total RNA was extracted from motor neuron differentiation cultures using RNA STAT-60 (Tel-Test, Inc.; […] Carlsbad, Calif.) according to the manufacturer's protocol and was used as templates for the PCR reaction. PCR reaction was performed in a 15 μl mixture containing cDNA, primers and 1×PCR Master mix (Promega; Madison, Wis.). The following primers were used: Olig-2,[NT] ID NO:21), [NT] ID NO:22), 315 bp; […] ID NO:23), [NT] ID NO:24), 337 bp; […] ID NO:25), [NT] ID NO:26), 473 bp; […] ID NO:27), [NT] ID NO:28), 459 bp; […] ID NO:31), [NT] ID NO:32), 335 bp; GAPDH, [NT] ID NO:1), [NT] ID NO:2), 450 bp; […] ID NO:33), [NT] ID NO:34), 269 bp; […] ID NO:35), [NT] ID NO:36), 399 bp; […] ID NO:37), [NT] ID NO:38), 352 bp; and Gli1, [NT] ID NO:39), [NT] ID NO:40), 185 bp.
# [3] = tested on: hESC-derived motor neurons; assay: Whole-cell patch-clamp of hESC-derived motor neurons, spontaneous synaptic currents; conditions: combination of D-AP5 (40 μM) and CNQX (20 μM)
# [4] = tested on: hESC-derived neuroectodermal cells; assay: Motor neuron induction in adherent culture, immunocytochemistry and HB9 cell counting
# Experimental: hESCs (lines H1 and H9, passages 19 to 42) were cultured and passaged weekly on a feeder layer of irradiated embryonic mouse fibroblasts as described (Thomson et al., supra, 1998). The undifferentiated state of ESCs were confirmed by typical morphology and expression of Oct4 and SSEA4. For neuroectodermal differentiation, hESCs were aggregated for four days and then cultured on an adhesive plastic surface for ten days in F12/DMEM supplemented with N2, heparin (2 ng/ml), and FGF2 (20 ng/ml) or RA (Zhang et al., supra, 2001). […]
# Primary antibodies used in this study included polyclonal antibodies against neuronal class III βIII-tubulin (Covance Research Products, Richmond, Calif., 1:2000), nestin (Chemicon, Temecula, Calif., 1:750), Sox1 (Chemicon, 1:1000), synapsin I (Calbiochem, Darmstadt, German, 1:500), ChAT (Chemicon, 1:50), and VAChT (Chemicon, 1:1000), Isl½ (S. Pfaff), Otx2 (F. Vaccarino), and Oig2 (M. Nakafuku). […] For identification of electrophysiologically recorded cells, biocytin (Molecular Probes) filled cells were labeled with streptavidin-FITC (sigma, 1:200) and stained for ChAT. […]
# The population of HB9-expressing cells among total differentiated cells (Hoechst labeled) was counted by a person who was blind to experimental groups either manually using the Metamorph software (Universal Imaging Corporation, Downingtown, Pa.) or by stereological measurement. […]
compound,measurement,setting,value
LIF: leukemia inhibitory factor,BrdU incorporation (stimulation of precursor cell proliferation),[1],could not be elicited
c1ccc2c(Oc3nc(Nc4ccc(N5CCOCC5)cc4)c4ncn(C5CCCCC5)c4n3)cccc2c1 [purmorphamine],Time of treatment until Olig2+ cells first observed,"[2]; after isolating NE cells (day 22 of hESC differentiation), a few days earlier than SHH/RA",≤ 5 days
same,Olig2+ cells (highest percentage),"[2]; purmorphamine 1 μM with RA, 3.5 weeks, confirmed by FACS",around 40%
same,Olig2 expression in progenitors,"[2]; purmorphamine 0.5, 1 and 2 uM in the presence of RA 0.1 μM, 3.5 weeks",robustly induced; also recorded: dose-dependent manner
same,Induction of Olig2+ or HB9+ cells,[2]; purmorphamine alone (without RA) from day 17,not sufficient
same,Expression of Olig2 and HB9,"[2]; purmorphamine with RA, 4.5 week",over 40%
same,Olig2+ motor neuron progenitors and HB9+ motor neurons of differentiated population,"[2]; purmorphamine with RA, 4.5 weeks of hESC differentiation",at least 80%
same,HB9+ motor neurons also positive for ChAT,"[2]; purmorphamine, attachment on coverslips and another week of differentiation",most
same,"Expression pattern of class II factors (Nkx6.1, Nkx2.2) compared with SHH",SHH pathway; 1 week of purmorphamine treatment,almost identical expression pattern
same,mRNA for Gli1,SHH pathway; 1 week of treatment,increased levels
"N[C@H](CCCP(=O)(O)O)C(=O)O [D-AP5, D-2-amino-5-phosphonovaleric acid]",Effect on remaining inward (excitatory) synaptic currents,[3],blocked
"CC1=C(/C=C/C(C)=C/C=C/C(C)=C/C(=O)O)C(C)(C)CCC1 [RA, retinoic acid]",RA concentration inducing the highest proportion of HB9+ cells,[4],0.1 to 1.0 µM
same,RA dose resulting in degeneration of some cells,[4]; chemically defined adherent cultures,over 1.0 μM
"EGF: epidermal growth factor (NSDSECPLSHDGYCLHDGVCMYIEALDKYACNCVVGYIGERCQYRDLKWWELR; Epidermal growth factor; UniProt P01133 971-1023, looked up)",BrdU incorporation (stimulation of precursor cell proliferation),[1],could not be elicited
"N#Cc1cc2c(cc1[N+](=O)[O-])=NC(=O)C(=O)N=2 [CNQX, 6-cyano-7-nitroquinoxaline-2,3-dione]",Effect on remaining inward (excitatory) synaptic currents,[3],blocked
